Assays:
[1] = Water adsorption isotherm (water adsorption level, BELSORP-18 analyzer); format: physicochemical; conditions: constant temperature of 25° C.; crystal dried overnight in vacuum at 60° C.; results in FIGS. 3 and 4; hydrochloride
Protocol: Preparation of Water Adsorption Isotherm (Water Adsorption Constant Temperature Line):
After the Type IV crystal recovered above was dried overnight in vacuum at 60° C., the water adsorption level of the crystal was measured at a constant temperature of 25° C. by a fully automatic water adsorption analyzer (BELSORP-18: Nippon Bell K.K.) (see Mitsuiki et al., J. Agric. Food Chem., vol.46, No. 9, pages 3528-3534 (1998)).
The water adsorption level of the Type I crystal was also measured in the same manner as above.

[2] = X ray powder diffraction pattern of the crystal under humidity (crystal structure stability); format: physicochemical; conditions: relative humidity of 80% or less

SMILES	water (water vapor) adsorption level versus relative humidity [1]	change of X ray powder diffraction pattern / crystal structure [2]
COc1ccc(/C=C\c2cc(OC)c(OC)c(OC)c2)cc1NC(=O)[C@@H](N)CO.Cl [Type I crystal, (Z)-N-[2-methoxy-5-[2-(3,4,5-trimethoxyphenyl)vinyl]phenyl]-L-serinamide hydrochloride, reference compound]	adsorbed water in a degree roughly proportional to relative humidity	
COc1ccc(/C=C\c2cc(OC)c(OC)c(OC)c2)cc1NC(=O)[C@@H](N)CO.Cl [Type IV crystal, (Z)-N-[2-methoxy-5-[2-(3,4,5-trimethoxyphenyl)vinyl]phenyl]-L-serinamide hydrochloride]	adsorbed much less water up to around a relative humidity of 80%	did not change

From patent US20030065035A1, “Novel stilbene derivative crystal and method for producing the same” (AJINOMOTO CO. INC, priority 2000, published 2003)
